What was measured:
Format in all cases: in vivo, mouse
[1] = system: 5xFAD mice; assay: Open Field (OF) test in 5xFAD mice; details: CBD 10 mg/kg intraperitoneally every other day, 8 doses over 2 weeks, 10 min test, from 190±90 sec in placebo, p>0.05
Procedure: (§1) 5xFAD (expressing human APP and PSEN1 transgenes with a total of five AD-linked mutations) transgenic mice (male 9-12-month-olds) were used. These 5xFAD transgenic mice rapidly recapitulate major features of AD amyloid pathology. Mice were randomized into two experimental groups (placebo or CBD-treated; 6-10 mice/group) by a blinded investigator. A group of untreated wild-type (WT) experiments were performed in accordance with the rules and regulations of the Augusta University Institutional Animal Care and Use Committee (IACUC). In the treatment group, mice received CBD isolate (tetrahydrocannabinol-free, Canabidiol Ltd., Dublin, Ireland), 10 mg/kg intraperitoneally every other day for 8 doses over 2 weeks. […]
(§2) To assess the behavior, Open Field (OF) and Novel Object Recognition (NOR) tests were used. […] The ability of the mouse to discriminate between the familiar and novel object was quantified as a discrimination index, DI=(Tn−Tf)/(Tn+Tf), where Tn is the time spent by the mouse with the novel object, and Tf indicates the time spent with the familiar object. In OF evaluation, mice were tested in a square box (40 cm by 40 cm by 40 cm) for 10 min, and activity was digitally recorded. Distance traveled, mean velocity, and time spent in the center zone were analyzed with Ethovision XT video-tracking software (Noldus Information Technology, USA).

[2] = system: IL-33; assay: Flow cytometry of IL-33 in brain astrocytes (GFAP+ cells); details: brain of 5xFAD mice, CBD 10 mg/kg intraperitoneally, 8 doses over 2 weeks; p≤0.001
Procedure: as §1
(§3) For flow cytometry analysis, single-cell suspension was prepared from brain, and blood by sieving the brain tissues through a […] cell strainer followed by centrifugation (252 g, 10 min). All cells were then stained with fluorescent antibodies based on routine flow cytometry staining protocol as described previously to quantify astrocytes (GFAP+cells), IL-33, myeloid cells (CD11b+), and TREM2 in the brain as well as leukocytes (CD45+) and IL-6 in the blood. IL-6 was measured as a reliable biomarker in the blood. […] Proper compensation was set to ensure the median fluorescence intensities of negative and positive cells were […] and then was used to gate the population. […]

[3] = system: IL-6; assay: Flow cytometry of IL-6 in peripheral blood leukocytes; details: whole blood of 5xFAD mice, CBD 10 mg/kg intraperitoneally, 8 doses over 2 weeks; decreased from 6.9±1.9%, p≤0.009
Procedure: as §1, with “(IACUC).” for “(IACUC). In the treatment group, mice received CBD isolate (tetrahydrocannabinol-free, Canabidiol Ltd., Dublin, Ireland), 10 mg/kg intraperitoneally every other day for 8 doses over 2 weeks.”
For flow cytometry analysis, single-cell suspension was prepared from brain, and blood by sieving the brain tissues through a […] cell strainer followed by centrifugation (252 g, 10 min). All cells were then stained with fluorescent antibodies based on routine flow cytometry staining protocol as described previously to quantify astrocytes (GFAP+cells), IL-33, myeloid cells (CD11b+), and TREM2 in the brain as well as leukocytes (CD45+) and IL-6 in the blood. IL-6 was measured as a reliable biomarker in the blood. […] Flow cytometry data were analyzed using FlowJo V10. Proper compensation was set to ensure the median fluorescence intensities of negative and positive cells were […] and then was used to gate the population. […]

[4] = system: β-amyloid peptide; assay: Immunofluorescence staining of β-amyloid peptide in brain tissues; details: 5xFAD mice, CBD 10 mg/kg intraperitoneally every other day, 8 doses over 2 weeks; hippocampus area
Procedure: (§4) 5xFAD (expressing human APP and PSEN1 transgenes with a total of five AD-linked mutations) transgenic mice (male 9-12-month-olds) were used. These 5xFAD transgenic mice rapidly recapitulate major features of AD amyloid pathology. Mice were randomized into two experimental groups (placebo or CBD-treated; 6-10 mice/group) by a blinded investigator. A group of untreated wild-type (WT) experiments were performed in accordance with the rules and regulations of the Augusta University Institutional Animal Care and Use Committee (IACUC). In the treatment group, mice received CBD isolate (tetrahydrocannabinol-free, Canabidiol Ltd., Dublin, Ireland), 10 mg/kg intraperitoneally every other day for 8 doses over 2 weeks. Placebo-treated mice were administered along the same schedule as CBD.
(§5) Brain and blood tissues were collected and processed for histology and Immunofluorescence imaging. Briefly, brain tissues were labeled with specific, fluorescent-conjugated antibodies with fluorescent conjugation against amyloid-β, IL-33, IBA1 (for microglia), TREM2, and GFAP (Glial Fibrillary Acidic Protein for astrocytes identification). Slides were counterstained using DAPI (4′,6-diamidino-2-phenylindole) prior to examination and imaging by Zeiss Fluorescence Microscope.

[5] = system: TREM2; assay: Immunofluorescence staining of TREM2 in brain tissues; details: 5xFAD mice, CBD treated compared to untreated group; distinctively in microglial cells
Procedure: as §4, §5

[6] = system: IL-33; assay: Immunofluorescence staining of IL-33 in brain tissues; details: 5xFAD mice, CBD treated compared to untreated group; more evident in astrocytes
Procedure: as §4, §5

[7] = system: 5xFAD mice; assay: Novel Object Recognition (NOR) test in 5xFAD mice; details: CBD 10 mg/kg intraperitoneally every other day, 8 doses over 2 weeks, from −0.2±0.8 in placebo, p≤0.04
Procedure: as §1, §2

[8] = system: TREM2; assay: Flow cytometry of TREM2 in brain microglia (CD11b+ cells); details: brain of 5xFAD mice, CBD 10 mg/kg intraperitoneally, 8 doses over 2 weeks; p≤0.0001
Procedure: as §1, §3

C=C(C)[C@@H]1CCC(C)=C[C@H]1c1c(O)cc(CCCCC)cc1O [CBD, cannabidiol]
Central zone stay, OF test [1]: 250 ± 80 s | increase in IL-33 expression in astrocytes (GFAP+ cells), flow cytometry [2]: 7 fold | IL-6 expression in peripheral leukocytes, flow cytometry [3]: 2.1±1.4% | β-amyloid peptide in brain tissues (immunofluorescence) [4]: reduction of β-amyloid peptide | TREM2 expression in brain tissues (immunofluorescence) [5]: increase in TREM2 expression | IL-33 expression in brain tissues (immunofluorescence) [6]: increase the expression of IL-33 | discrimination index (DI), NOR [7]: 0.5±0.9 | increase in TREM2 expression in microglia (CD11b+ cells), flow cytometry [8]: 10 fold

— US20240226124A9, “CANNABIDIOL FOR TREATING NEURODEGENERATIVE DISEASES” (AUGUSTA UNIVERSITY RESEARCH INSTITUTE, INC., priority 2021, published 2024)
